The record followed here is publication PMC6271011, “Synthesis, Leishmanicidal and Cytotoxic Activity of Triclosan-Chalcone, Triclosan-Chromone and Triclosan-Coumarin Hybrids” (Molecules, 2014).

Data set [1] has as its system human promonocytic cell line U937. Briefly: in vitro. The following applies: U-937 cells, MTT, 72 h, Lethal Concentration 50. Here is the method:
(§1) The cytotoxic activity of the compounds was assessed based on the viability of the human promonocytic cell line U937 (ATCC CRL-1593.2^TM) evaluated by the MTT (3-(4,5-dimethylthiazol-2-yl)-2,5-diphenyltetrazolium bromide) assay. In brief, cells were grown in 96-well cell-culture dishes at a concentration of 100,000 cells/mL in RPMI-1640 supplemented with 10% FBS and the corresponding concentrations of the compounds, starting at 200 µg/mL in duplicate. The cells were incubated at 37 °C with 5% CO2 for 72 h in the presence of the compounds, and then the effect was determined using the MTT assay, incubating at 37 °C for 3 h. The effect of the compounds was determined by measuring the activity of the mitochondrial dehydrogenase by adding 10 µL/well of MTT solution (0.5 mg/mL) and incubating at 37 °C for 3 h. The reaction was stopped by adding a 50% isopropanol solution with 10% sodium dodecyl sulfate for 30 min. Cell viability was determined based on the quantity of formazan produced, according to the optical density (O.D) obtained at 570 nm in a Bio-Rad (Hercules, CA, USA) ELISA instrument. Cultured cells in the absence of extracts were used as viability controls, while meglumine antimoniate and amphotericin B were used as cytotoxicity controls. Assays were performed twice with three replicates per each concentration tested.
(§2) Cytotoxicity was determined according to viability and mortality percentages obtained for each isolated experiment (compounds, amphotericin B, meglumine antimoniate and culture medium alone). The results were expressed as 50 lethal concentrations (LC50), that corresponds to the concentration necessary to eliminate 50% of cells, calculated by Probit analysis. Percentage of viability was calculated by Equation (1), where the optical density (O.D) of control, corresponds to 100% of viability. In turn, mortality percentage corresponds to 100% viability: % Viability = (O.D Exposed cells)/(O.D Control cells) × 100 (1)
(§3) The degree of toxicity was established according to the LC50 value using the following scale: highly toxic: LC50 < 50 μg/mL, toxic: LC50 > 50 to < 100 μg/mL; moderately toxic: LC50 > 100 to < 200 μg/mL and potentially non-toxic: LC50 > 200 μg/mL.

The test system of data set [2] is intracellular amastigotes of L. (V) panamensis. Briefly: Leishmanicidal activity against intracellular amastigotes (GFP, flow cytometry, 72 h). It counts as cell-based, Leishmania (Viannia) panamensis. Particulars: for Leishmanicidal activity % Inhibition: intracellular amastigotes; for SI (Selectivity Index = LC50/EC50): LC50 U-937 / EC50 intracellular amastigotes. On the procedure:
The leishmanicidal activity of compounds was evaluated on intracellular amastigotes of L. panamensis transfected with the green fluorescent protein gene (MHOM/CO/87/UA140pIR-GFP). Effect of each compound was determined according to the inhibition of the infection evidenced by both decrease of the infected cells and decrease of intracellular parasite load. Briefly, U-937 human cells at a concentration of 3 × 10^5 cells/mL in RPMI 1640 and 0.1 μg/mL of PMA (phorbol-12-myristate-13-acetate) were infected with promastigotes in stationary phase growth in a 15:1 parasites per cell ratio and incubated at 34 °C and 5% CO2 for 3 h. Cells were washed two times with phosphate buffer solution (PBS) to eliminate not internalized parasites. Fresh RPMI 1640 1 mL was added and cells were incubated during 24 h to guarantee multiplication of intracellular parasites.
After 24 h of infection, the culture medium was replaced by fresh culture medium containing each compound at concentrations of 20 μg/mL. After 72 h, the inhibition of the infection progress was determined. Cells were removed from the bottom plate with a trypsin/EDTA (250 mg) solution. Recovered cells were centrifuged at 1100 rpm during 10 min at 4 °C, the supernatant was discarded and cells were washed with 1 mL of cold PBS and centrifuged at 1100 rpm during 10 min at 4 °C. Supernatant was discarded and cells were suspended in 500 μL of PBS and analyzed by flow cytometry (FC 500MPL, Cytomics, Brea, CA, USA) counting 20.000 events. All determinations for each compound and standards were carried out in triplicate, in two isolated experiments. Activity of tested compounds was carried out in parallel with infection progress in culture medium alone and in culture medium with amphotericin B 0.05 μg/mL and meglumine antimoniate (10.0 μg/mL) as control drugs. […] The infected cells were exposed against each concentration of synthesized compounds during 72 h, then, cells were removed and tested by flow cytometry as described before.
Antileishmanial activity was determined according to percentage of infected cells and parasite load obtained for each experimental condition by the cytometer. Percentage of infected cells was determined as the number of positive events by double fluorescence (green for parasites and red for cells) using dotplot analysis. On the other hand, the parasitic load was determined by analysis of mean fluorescence intensity (MFI).
The parasitemia inhibition was calculated by Equation (2), where the MFI of control, corresponds to 100% of parasitemia. In turn, inhibition percentage corresponds to 100% Parasitemia.
The selectivity index (SI), was calculated by dividing the cytotoxic activity and the leishmanicidal activity using the following formula: SI = CL50/CE50.

For data set [3] the test system is unchanged. The description is as above. Type of data set: cell-based, Leishmania (Viannia) panamensis. Particulars: for inhibition at 20 µg/mL: read-out: Leishmanicidal activity % Inhibition; for EC50: intracellular amastigotes in U-937 cells.
Another data set in a line: in vitro. The following applies: human. On the procedure:
as §1, §2, §3

Where “and” joins values, the source holds several entries; their conditions need not be identical. Equal values may be shown once. Read-outs that look alike come from different tables or passages of the source. Bounds are passed on as bounds.

What is called EC50 is the concentration at which the effect is half-maximal. As usually defined, the inhibition is the share of the control response that was lost under treatment.

As for “3,4-dimethoxy-4'-hydroxychalcone [3,4-Dimethoxy-4'-hydroxychalcone (6), reference compound]”, the “Cytotoxicity LC50” value in data set [1] is 13.9 ± 1.4 µg/mL. For the same molecule, the CC50 in data set [1] (read-out: Cytotoxicity LC50) was 48.9 µM. Also, in data set [2] (at 20 µg/mL, 72 h), the “Leishmanicidal activity % Inhibition” value came out at 52.4 ± 6.5%. In data set [2] (intracellular amastigotes in U-937 cells, 72 h), the “Leishmanicidal activity EC50” value is 20.03 ± 1.4 µg/mL. For the same molecule, in data set [2] (intracellular amastigotes in U-937 cells, 72 h, read-out: Leishmanicidal activity EC50 (converted)), the half-maximal effective concentration (EC50) is 70.5 µM.
Consider `Cc1cc(=O)oc2cc(O)ccc12` [7-Hydroxy-4-methylcoumarin (11), 7-hydroxy-4-methylcoumarin, reference compound], for which, in data set [3] (intracellular amastigotes), the inhibition at 20 µg/mL came out at 15.3 ± 0.1%.
Still for that read-out and setting: next, `O=c1ccoc2cc(O)ccc12` [7-Hydroxychromone (20), 7-hydroxychromone, reference compound]: 14.8 ± 0.9%.
In the case of `C[C@@H]1[C@H](O)[C@@H](C)/C=C/C=C/C=C/C=C/C=C/C=C/C=C/[C@H](O[C@@H]2O[C@H](C)[C@@H](O)[C@H](N)[C@@H]2O)C[C@@H]2O[C@](O)(C[C@@H](O)C[C@@H](O)[C@H](O)CC[C@@H](O)C[C@@H](O)CC(=O)O[C@H]1C)C[C@H](O)[C@H]2C(=O)O` [Amphotericin B, reference compound], the CC50 at 72 h in the data set “in vitro” was 42.1 µg/mL and 45.6 µM. In addition, in data set [3] (Dose employed: 0.05 µg/mL, intracellular amastigotes), the inhibition at 0.05 µg/mL was 69.1 ± 1.3%. In addition, in data set [3], the EC50 was 0.06 µg/mL and 100 nM.
Consider `COc1ccc(/C=C/C(=O)c2ccc(OCCCOc3cc(Cl)ccc3Oc3ccc(Cl)cc3Cl)cc2)cc1OC` [Compound 7, (2E)-1-(4-{3-[5-Chloro-2-(2,4-dichlorophenoxy)phenoxy]propoxy}phenyl)-3-(3,4-dimethoxyphenyl) prop-2-en-1-one], for which the CC50 at 72 h in the data set “in vitro” is > 200 µg/mL and > 327 µM. Besides, the “SI (Selectivity Index = LC50/EC50)” value in data set [2] is recorded as above 21.3. In addition, in data set [3] (intracellular amastigotes), the inhibition at 20 µg/mL was 67.4 ± 17.2%. Moreover, the EC50 in data set [3] was 9.4 µg/mL and 15.4 µM.
Regarding `COc1ccc(/C=C/C(=O)c2ccc(OCCCCOc3cc(Cl)ccc3Oc3ccc(Cl)cc3Cl)cc2)cc1OC` [Compound 8, (2E)-1-(4-{4-[5-Chloro-2-(2,4-dichlorophenoxy)phenoxy]butoxy}phenyl)-3-(3,4-dimethoxyphenyl) prop-2-en-1-one], the CC50 at 72 h in “in vitro” was > 200 µg/mL and > 319 µM. For the same molecule, in data set [2], the “SI (Selectivity Index = LC50/EC50)” value was above 19.6. Also, the inhibition at 20 µg/mL in data set [3] (intracellular amastigotes) was found to be 67.8 ± 19%. Besides, the concentration for a half-maximal effect (EC50) in data set [3] is 10.2 µg/mL and 16.3 µM.
For `COc1ccc(/C=C/C(=O)c2ccc(OCCCCCOc3cc(Cl)ccc3Oc3ccc(Cl)cc3Cl)cc2)cc1OC` [Compound 9, (2E)-1-[4-({5-[5-Chloro-2-(2,4-dichlorophenoxy)phenoxy]pentyl}oxy)phenyl]-3-(3,4-imethoxyphenyl) prop-2-en-1-one], in “in vitro”, the CC50 at 72 h was > 200 µg/mL and > 311 µM. Besides, in data set [2], the “SI (Selectivity Index = LC50/EC50)” value is recorded as above 14.8. Besides, in data set [3] (intracellular amastigotes), the inhibition at 20 µg/mL turned out to be 69.5 ± 8.6%. For the same molecule, the half-maximal effective concentration (EC50) in data set [3] is 13.5 µg/mL and 21.1 µM.
With `COc1ccc(/C=C/C(=O)c2ccc(OCCCCCCCCOc3cc(Cl)ccc3Oc3ccc(Cl)cc3Cl)cc2)cc1OC` [Compound 10, (2E)-1-[4-({8-[5-Chloro-2-(2,4-dichlorophenoxy)phenoxy]octyl}oxy)phenyl]-3-(3,4-dimethoxyphenyl) prop-2-en-1-one], the CC50 at 72 h in “in vitro” was > 200 µg/mL and > 293 µM.
`Cc1cc(=O)oc2cc(OCCCOc3cc(Cl)ccc3Oc3ccc(Cl)cc3Cl)ccc12` [Compound 16, 7-{3-[5-Chloro-2-(2,4-dichlorophenoxy)phenoxy]propoxy}-4-methyl-2H-chromen-2-one]: the CC50 at 72 h in “in vitro” was > 200 µg/mL and > 397 µM. Also, the “Leishmanicidal activity % Inhibition” value in data set [2] (at 20 µg/mL, 72 h) stood at 34.0 ± 0.3%. The inhibition at 20 µg/mL in data set [3] (intracellular amastigotes) was below 50%.
As for `Cc1cc(=O)oc2cc(OCCCCOc3cc(Cl)ccc3Oc3ccc(Cl)cc3Cl)ccc12` [Compound 17, 7-{4-[5-Chloro-2-(2,4-dichlorophenoxy)phenoxy]butoxy}-4-methyl-2H-chromen-2-one], in the data set “in vitro”, the CC50 at 72 h was > 200 µg/mL and > 386 µM. In data set [2], the “SI (Selectivity Index = LC50/EC50)” value was above 7.3. In addition, the inhibition at 20 µg/mL in data set [3] (intracellular amastigotes) was 57.1 ± 11.5%. Also, in data set [3], the EC50 was 27.5 µg/mL and 53.1 µM.
As for `Cc1cc(=O)oc2cc(OCCCCCOc3cc(Cl)ccc3Oc3ccc(Cl)cc3Cl)ccc12` [Compound 18, 7-({5-[5-Chloro-2-(2,4-dichlorophenoxy)phenoxy]pentyl}oxy)-4-methyl-2H-chromen-2-one], in “in vitro”, the CC50 at 72 h is > 200 µg/mL and > 376 µM.
As to `Cc1cc(=O)oc2cc(OCCCCCCCCOc3cc(Cl)ccc3Oc3ccc(Cl)cc3Cl)ccc12` [Compound 19, 7-({8-[5-Chloro-2-(2,4-dichlorophenoxy)phenoxy]octyl}oxy)-4-methyl-2H-chromen-2-one], the CC50 at 72 h in the data set “in vitro” was > 200 µg/mL and > 348 µM.
As for `O=c1ccoc2cc(OCCCOc3cc(Cl)ccc3Oc3ccc(Cl)cc3Cl)ccc12` [Compound 25, 7-{3-[5-Chloro-2-(2,4-dichlorophenoxy)phenoxy]propoxy}-4H-chromen-4-one], in “in vitro”, the CC50 at 72 h was 6.4 µg/mL and 13.1 µM. Besides, the “SI (Selectivity Index = LC50/EC50)” value in data set [2] is listed as 2.4. Also, in data set [3] (intracellular amastigotes), the inhibition at 20 µg/mL is 94.4 ± 2.9%. Also, in data set [3], the EC50 was 2.7 µg/mL and 5.5 µM.
For `O=c1ccoc2cc(OCCCCOc3cc(Cl)ccc3Oc3ccc(Cl)cc3Cl)ccc12` [Compound 26, 7-{4-[5-Chloro-2-(2,4-dichlorophenoxy)phenoxy]butoxy}-4H-chromen-4-one], in the data set “in vitro”, the CC50 at 72 h is 15.8 µg/mL and 31.3 µM. Besides, the “SI (Selectivity Index = LC50/EC50)” value in data set [2] was found to be 2.1. The inhibition at 20 µg/mL in data set [3] (intracellular amastigotes) was found to be 91 ± 9.6%. Also, the EC50 in data set [3] was 7.5 µg/mL and 14.9 µM.
Take `O=c1ccoc2cc(OCCCCCOc3cc(Cl)ccc3Oc3ccc(Cl)cc3Cl)ccc12` [Compound 27, 7-({5-[5-Chloro-2-(2,4-dichlorophenoxy)phenoxy]pentyl}oxy)-4H-chromen-4-one]: the CC50 at 72 h in the data set “in vitro” is 25.8 µg/mL and 49.8 µM. The “SI (Selectivity Index = LC50/EC50)” value in data set [2] came out at 1.6. The inhibition at 20 µg/mL in data set [3] (intracellular amastigotes) was determined as 75.5 ± 1.5%. For the same molecule, the EC50 in data set [3] was 16 µg/mL and 30.9 µM.
Regarding `O=c1ccoc2cc(OCCCCCCCCOc3cc(Cl)ccc3Oc3ccc(Cl)cc3Cl)ccc12` [Compound 28, 7-({8-[5-Chloro-2-(2,4-dichlorophenoxy)phenoxy]octyl}oxy)-4H-chromen-4-one], the CC50 at 72 h in the data set “in vitro” is 80 µg/mL and 143 µM. In data set [3] (intracellular amastigotes), the inhibition at 20 µg/mL amounted to 28.4 ± 2.1%.
In the case of “meglumine antimoniate [Sb(V), reference compound]”, the “Cytotoxicity LC50” value in data set [1] was 495.9 ± 55.6 µg/mL. Further, in data set [2] (Dose employed: 10 µg/mL, 72 h), the “Leishmanicidal activity % Inhibition” value is recorded as 79.4 ± 2.1 ^h %.
